Measurements published in patent US11135160B2, “Use of chlorogenic acid in preparing pharmaceuticals for treatment of LAG-3-mediated disease” (SICHUAN JIUZHANG BIOLOGICAL SCIENCE AND TECHNOLOGY CO. LTD, priority 2016, dated 2021).

Tests used:
LAG-3 gene [1] = experiment: Expression of LAG-3 gene in CLL cells by RT-PCR; format: cell-based, human; details: 48 h, vs blank control group (*p<0.05)
Method: (§1) CLL cells and JurkatE6-1 cells in exponential phase of growth with good conditions were inoculated in 6 well plate at a concentration of 5×10^5/ml. Each kind of cells were set four groups, and each group has three repeat holes for administration. Amongst, three chlorogenic acid groups received the drug dissolved in blank 1640 medium (1 mL) at the desired concentration, while the blank control group received the same volume of blank 1640 medium.
(§2) Using RNA prep Pure cultured cell/bacteria total RNA extraction kit (centrifugal column), total RNA was extracted from cells, and the operative procedures were carried out as the instructions. The detailed extraction procedures are briefly described as follows:
(§3) Using cDNA first strand synthesis kit and the resultant RNA solution by above extraction, the corresponding first strand cDNA was synthesized. The detailed reverse transcription procedures were carried out according to the instructions, that is briefly described as follows:
(§4) Because EvaGreen fluorescent dye can produce strong fluorescence when binding with the double-stranded DNA, the total amount of DNA formed by reaction can be obtained by detecting the final fluorescence intensity. To the test tube, were added fluorescent dye, cDNA product synthesized in steps (1) and (2), LAG-3 primer (Forward primer SEQ ID NO: 1 5′-[…]-3′, downstream primer SEQ ID NO: 2 5′-[…]-3′), and well mixed, then subjected to RT-PCR measurement. Amongst, […] group was set for each sample for calculating the relative magnitude, to perform the relative quantitation.

LAG-3 protein = experiment: Immunohistochemistry of LAG-3 protein expression in in situ lesion of GL261 glioma mice; format: in vivo, C57BL/6 mice; details: 7 days, chlorogenic acid 40 mg/kg intraperitoneal, temozolomide 20 mg/kg oral, saline control 69%
Method: GL261 glioma cells in exponential phase of growth were prepared as GL261 single cell suspension at a concentration of 5×10^5/μL. After anesthetized with 0.75% pentobarbital sodium at 6 μL/g, the hair at the puncture site was stripped, and the heads of mice were fixed with ALC-H mouse brain stereotactic apparatus for longitudinal incision of scalp. […] GL261 single cell suspension was injected using micro pump at 2.5 μL/min, and the pinpoint was sealed with bone wax, then the incision of scalp was carefully sutured. Totally, 35 mice were inoculated, and the remained 5 mice were normal. The dead mice were removed, and C57BL/6 mice inoculated with GL261 glioma cells were randomly divided to 3 groups, including the saline control group (NC group), chlorogenic acid injection group (CA group), and temozolomide (TMZ) positive control group. Amongst, CA group is intraperitoneally injected with 40 mg/kg chlorogenic acid everyday, NC group is injected with the same volume of saline, and TMZ treatment group orally takes 20 mg/kg temozolomide. […]
After completion of experiment, in situ lesion of each group mice was cut, while the brain tissue of 5 remained normal mice mentioned in step 2.2 was cut. […] The immunohistochemical results were analyzed by semiquantitative method, and finally, the expression rate of LAG-3 protein in different tissue sample was subjected to statistical analysis.

[2] = tested on: CD3+T lymphocytes and CD4+T lymphocytes; experiment: T cell proliferation in peripheral blood of GL261 glioma mice; format: in vivo, C57BL/6 mice; details: 40 mg/kg intraperitoneal, 7 days, vs saline control group
Method: GL261 glioma cells in exponential phase of growth were prepared as GL261 single cell suspension at a concentration of 5×10^5/μL. After anesthetized with 0.75% pentobarbital sodium at 6 μL/g, the hair at the puncture site was stripped, and the heads of mice were fixed with ALC-H mouse brain stereotactic apparatus for longitudinal incision of scalp. […] GL261 single cell suspension was injected using micro pump at 2.5 μL/min, and the pinpoint was sealed with bone wax, then the incision of scalp was carefully sutured. Totally, 35 mice were inoculated, and the remained 5 mice were normal. The dead mice were removed, and C57BL/6 mice inoculated with GL261 glioma cells were randomly divided to 3 groups, including the saline control group (NC group), chlorogenic acid injection group (CA group), and temozolomide (TMZ) positive control group. Amongst, CA group is intraperitoneally injected with 40 mg/kg chlorogenic acid everyday, NC group is injected with the same volume of saline, and TMZ treatment group orally takes 20 mg/kg temozolomide. [table] […] Detecting the proliferation status of T lymphocytes may reflect the strong/weak inhibitory action of LAG-3. […]

LAG-3 [3] = experiment: Content of LAG-3 in JurkatE6-1 cells, ELISA with human lymphocyte activation gene 3 detection kit; format: cell-based; details: 48 h
Method: (§5) CLL cells and JurkatE6-1 cells in exponential phase of growth with good conditions were inoculated in 6 well plate at a concentration of 5×10^5/ml. Each kind of cells were set four groups, and each group has three repeat holes for administration. Amongst, three chlorogenic acid groups received the drug dissolved in blank 1640 medium (1 mL) at the desired concentration, while the blank control group received the same volume of blank 1640 medium. [table] In this example, by ELISA experiment, the activity of LAG-3 in cells of each group was determined using human lymphocyte activation gene 3 detection kit. After cells of each group acted with corresponding drugs for 48 h, cell culture fluid of each group was collected and divided into two parts. The protein of one part was quantitated using BCA method, and the activity of LAG-3 in cells of each group was determined using human lymphocyte activation gene 3 detection kit, to calculate the content of LAG-3 in each group.

LAG-3 [4] = experiment: Content of LAG-3 in CLL cells, ELISA with human lymphocyte activation gene 3 detection kit; format: cell-based; details: 48 h
Method: as §5

LAG-3 gene [5] = experiment: Expression of LAG-3 gene in JurkatE6-1 cells by RT-PCR; format: cell-based, human; details: 48 h, vs blank control group (*p<0.05)
Method: as §1, §2, §3, §4

[6] = high dose 100 μM, vs blank control group (*p<0.05)
[7] = middle dose 50 μM, vs blank control group (*p<0.05)

Structure (SMILES) | expression level of LAG-3 gene (LAG-3 gene [1]; high dose 100 μM) | expression level of LAG-3 gene (LAG-3 gene [1]; low dose 10 μM) | expression level of LAG-3 gene (LAG-3 gene [1]; middle dose 50 μM) | average percentage of LAG-3 protein high expression (LAG-3 protein) [%] | percentage of CD3+T lymphocytes in peripheral blood lymphocytes [2] | percentage of CD4+T lymphocytes in peripheral blood lymphocytes [2] | content of LAG-3 (LAG-3 [3]; [6]) | content of LAG-3 (LAG-3 [3]; low dose 10 μM) | content of LAG-3 (LAG-3 [3]; [7]) | content of LAG-3 (LAG-3 [4]; [6]) | content of LAG-3 (LAG-3 [4]; low dose 10 μM) | content of LAG-3 (LAG-3 [4]; [7]) | expression level of LAG-3 gene (LAG-3 gene [5]; high dose 100 μM) | expression level of LAG-3 gene (LAG-3 gene [5]; low dose 10 μM) | expression level of LAG-3 gene (LAG-3 gene [5]; middle dose 50 μM)
O=C(/C=C/c1ccc(O)c(O)c1)O[C@@H]1C[C@](O)(C(=O)O)C[C@@H](O)[C@H]1O [chlorogenic acid, 3-o-caffeoylquinic acid] | obviously different | obviously different | obviously different | 23.78 | obviously promote the proliferation | obviously promote the proliferation | obviously different | lowered | obviously different | obviously different | lowered | obviously different | obviously reduced | obviously reduced | obviously reduced
Cn1nnc2c(C(N)=O)ncn2c1=O [temozolomide, reference compound] |  |  |  | 44.83 |  |  |  |  |  |  |  |  |  |  | 
